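A five-concentration, 48-hour dose response in 96-well plates underlies each endpoint, interpolated linearly between surrounding concentrations. GI50 = concentration required for 50% inhibition of growth.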 Activity calls are given as the source filed them. No stated cut-off is given here; in the data, active = GI50 up to about 1.1 µM and inactive = higher.
Columns and labels:
Assay in all cases: inhibition of tumour cell growth, NCI panel, 48 h
SN12C = system: SN12C
SK-MEL-5 = system: SK-MEL-5
COLO 205 = system: COLO 205
HOP-62 = system: HOP-62
KM12 = system: KM12
SK-MEL-2 = system: SK-MEL-2
SW-620 = system: SW-620
EKVX = system: EKVX
UACC-62 = system: UACC-62
SF-268 = system: SF-268
RPMI-8226 = system: RPMI-8226
NCI-H23 = system: NCI-H23
DU-145 = system: DU-145
MDA-MB-231 = system: MDA-MB-231
OVCAR-4 = system: OVCAR-4
TK-10 = system: TK-10
NCI-H460 = system: NCI-H460
HCC 2998 = system: HCC 2998
NCI-H522 = system: NCI-H522

Measured: GI50

CC(=O)Oc1cc2oc(=O)cc(C)c2cc1OC(C)=O
inactive: SN12C 48.1 µM | SK-MEL-5 > 100 µM | COLO 205 48 µM | HOP-62 51.8 µM | KM12 68.7 µM | SK-MEL-2 > 100 µM | SW-620 46.2 µM | EKVX 52.5 µM | UACC-62 58.2 µM | SF-268 36.6 µM | RPMI-8226 45.7 µM | NCI-H23 75.2 µM | DU-145 52.7 µM | MDA-MB-231 58.7 µM | OVCAR-4 85.7 µM | TK-10 44.5 µM

COC(C(=O)NN)c1ccccc1 (stereo not drawn)
inactive: SN12C > 100 µM | SK-MEL-5 > 100 µM | HOP-62 > 100 µM | KM12 > 100 µM | SK-MEL-2 > 100 µM | SW-620 > 100 µM | EKVX > 100 µM | UACC-62 > 100 µM | SF-268 > 100 µM | RPMI-8226 > 100 µM | NCI-H460 > 100 µM | NCI-H23 > 100 µM | DU-145 > 100 µM | HCC 2998 > 100 µM | TK-10 > 100 µM | NCI-H522 > 100 µM

c1ccc(C2SCc3nc4ccccc4n32)cc1 (stereo not drawn)
inactive: SN12C 46.1 µM | SK-MEL-5 18.6 µM | COLO 205 37.8 µM | HOP-62 43.8 µM | KM12 32.4 µM | SK-MEL-2 29.6 µM | SW-620 51.4 µM | EKVX 39.4 µM | UACC-62 37.2 µM | SF-268 37.9 µM | RPMI-8226 20.1 µM | NCI-H460 40.8 µM | NCI-H23 31.5 µM | OVCAR-4 66.7 µM | HCC 2998 30.4 µM | TK-10 52.4 µM | NCI-H522 18.9 µM

CCOC(=O)C1=C(O)C(=O)c2ccoc2C1=O
inactive: SN12C > 100 µM | SK-MEL-5 > 100 µM | COLO 205 > 100 µM | HOP-62 > 100 µM | KM12 > 100 µM | SK-MEL-2 > 100 µM | SW-620 > 100 µM | EKVX > 100 µM | UACC-62 > 100 µM | SF-268 > 100 µM | RPMI-8226 > 100 µM | NCI-H460 > 100 µM | NCI-H23 > 100 µM | OVCAR-4 > 100 µM | HCC 2998 > 100 µM | TK-10 > 100 µM | NCI-H522 > 100 µM

C=CCC1(CN(C)C)CC/C(=C\c2ccc(OC)cc2)C1=O (stereo not drawn)
inactive: SN12C > 100 µM | SK-MEL-5 41.5 µM | COLO 205 46.7 µM | HOP-62 > 100 µM | KM12 74.3 µM | SK-MEL-2 > 100 µM | SW-620 30.9 µM | EKVX 20.3 µM | UACC-62 > 100 µM | SF-268 > 100 µM | RPMI-8226 23.9 µM | NCI-H460 > 100 µM | NCI-H23 81.7 µM | OVCAR-4 88.7 µM | HCC 2998 38.7 µM | TK-10 > 100 µM | NCI-H522 25.8 µM

Reference: ChEMBL document CHEMBL1201862, “PubChem BioAssay data set” (2004)
